In patent publication US10940141B1, “Methods for the administration of certain VMAT2 inhibitors” (Neurocrine Biosciences, Inc., priority 2019, dated 2021):

What was measured:
[1] = Safety and tolerability in the Phase 1 single-dose study (TEAEs, laboratory tests, vital signs, ECG); assay type: in vivo, human
Procedure: (§1) This was a Phase 1, open-label, single-dose, PK study of valbenazine to assess the safety and PK of valbenazine and its metabolites in subjects with normal renal function or severe renal impairment. A total of 16 subjects (8 with severe renal impairment and 8 with normal renal function) received a single dose of valbenazine 40 mg (free base equivalent as the ditosylate salt) under fasted conditions.

[2] = Phase 1, open-label, single-dose PK study of valbenazine in subjects with normal renal function or severe renal impairment; assay type: in vivo, human; conditions: for effect of severe renal impairment on AUC0-∞ / effect of severe renal impairment on Cmax: single dose valbenazine 40 mg (free base equivalent as ditosylate), fasted, severe renal impairment compared to normal renal function; for effect of renal status on protein binding: severe renal impairment vs normal renal function
Procedure: as §1

[3] = cited from earlier work
[4] = valbenazine 40 mg single dose, all 16 subjects

COc1cc2c(cc1OC)[C@H]1C[C@@H](OC(=O)[C@@H](N)C(C)C)[C@H](CC(C)C)CN1CC2 [valbenazine, (S)-2-amino-3-methyl-butyric acid (2R, 3R,11bR)-3-isobutyl-9,10-dimethoxy-1,3,4,6,7,11b-hexahydro-2H-pyrido[2,1-a]isoquinolin-2-yl ester]
treatment-related TEAE headache ([1]; normal renal function group): 1 subject
treatment-related TEAE somnolence ([1]; normal renal function group): 1 subject
treatment-related TEAE somnolence ([1]; severe renal impairment group): 1 subject
treatment-related TEAE vision blurred ([1]; severe renal impairment group): 1 subject
subjects with QTcF increase from baseline >60 msec ([1]; valbenazine 40 mg single dose): No subject
subjects with QTcF interval >480 msec ([1]; valbenazine 40 mg single dose): No subject
subjects who experienced TEAEs, each of the renal function groups ([1]; valbenazine 40 mg single dose, 8 subjects per group (normal renal function; severe renal impairment)): 2 (25.0%) subjects
tolerability ([1]; valbenazine 40 mg single dose, 16 subjects (8 normal renal function, 8 severe renal impairment)): well tolerated
deaths, serious or severe TEAEs, or discontinuations due to a TEAE [1, 4]: no deaths, serious or severe TEAEs, or discontinuations due to a TEAE
subjects who experienced TEAEs, overall [1, 4]: 4 (25.0%) subjects
treatment-related TEAEs reported [1, 4]: 3 subjects
changes in clinical laboratory tests, vital sign measurements, weight, or ECG parameters ([1]; valbenazine 40 mg single dose, during the study): no clinically significant changes
urine clearance in subjects with severe renal impairment compared with normal renal function ([2]; single dose valbenazine 40 mg): reduction
effect of severe renal impairment on AUC0-∞ [2]: no clinically meaningful effect
effect of severe renal impairment on Cmax [2]: no clinically meaningful effect
effect of renal status on protein binding ([2]; single dose valbenazine 40 mg): little effect

COc1cc2c(cc1OC)[C@H]1C[C@@H](OC(=O)[C@@H](N)C(C)C)[C@H](CC(C)C)CN1CC2 [Valbenazine ditosylate, L-Valine, (2R,3R,11bR)-1,3,4,6,7,11b-hexahydro-9,10-dimethoxy-3-(2-methylpropyl)-2H-benzo[a]quinolizin-2-yl ester, 4-methylbenzenesulfonate (1:2)]
solubility in water [3]: slightly soluble

COc1cc2c(cc1OC)[C@H]1C[C@@H](OC(=O)[C@@H](N)C(C)(C)O)[C@H](CC(C)C)CN1CC2 [NBI-136110]
effect of severe renal impairment on AUC0-∞ [2]: no clinically meaningful effect
effect of severe renal impairment on Cmax [2]: no clinically meaningful effect

COc1cc2c(cc1OC)[C@H]1C[C@@H](O)[C@H](CC(C)C)CN1CC2 [NBI-98782, (2R, 3R,11bR)-3-isobutyl-9,10-dimethoxy-1,3,4,6,7,11b-hexahydro-2H-pyrido[2,1-a]isoquinolin-2-ol]
effect of severe renal impairment on AUC0-∞ [2]: no clinically meaningful effect
effect of severe renal impairment on Cmax [2]: no clinically meaningful effect
effect of renal status on protein binding ([2]; single dose valbenazine 40 mg): little effect
